# Laboratory results from patent US5468744A (priority 1994, dated 1995).
# Read-outs that look alike come from different tables or passages of the source.
# Legend:
# [1] = Tail-flick test, analgesic activity in male CD1 mice (oral, 15 min); format: in vivo; details: for ED50 at 15 min (95% Cl's), Tramadol: tramadol component; for ED50: Mus musculus, po, 0.25 h, read-out: ED50 (95% confidence interval), drug alone
# Experimental: For each of the ratios of individual drugs used in the drug combinations tested (Table I), stock solutions were prepared that corresponded to twice the dose of each drug having a concentration expressed in mgdrug(s) per 5 mL of distilled water. For example, in the case of the 1:20 tramadol:codeine ratio, 9.1 mg of tramadol hydrochloride (=8.0 mg of tramadol as the base) and 217.1 mg of codeine phosphate (=160.0 mg of codeine as the free base) were each dissolved in separate 5 mL vials of distilled water to form individual stock solutions. Equal volumes of each of the stock solutions were then combined to prepare the final desired drug combination per 10 mL of distilled water. […] Then 10 mL/kg of the stock solution was injected into the mouse. See, Table I. Each ratio was prepared separately in a similar manner and injected in a volume of 10 mL/kg per mouse.
# The preparation of different ratios of a tramadol/oxycodone combination is effected by preparing a stock solution having a concentration expressed in mgdrugs per 10 mL of dissolved water. […] Each ratio was prepared separately in a similar manner and injected in a volume of 10 mL/kg per mouse.
# Some mice were dosed orally with the compositions as made in Example 1 and as shown in Table 1 and other mice were dosed orally with the compositions as made in Example 2 and as shown in Table II. The dosing volume was 10 mL/kg.
# Analgesic activity was assessed employing the tail-flick test as described by F. D'Amour et al., J. Pharmacol. Exp. Ther., 72, 74 (1941). The test involved subjecting the tail of a mouse to a focused heat stimulus and monitoring the response, i.e., "flicking" (removing) of the tail from the source of the stimulus. The reaction time (latency) of the response was first measured without the administration of any drug composition, and repeated fifteen minutes after the administration of compositions of the invention wherein the components of the compositions are in various ratios. Each mouse was only subjected to one pre- and post-administration test.
# The analysis of possible superadditivity for the compositions at each fixed ratio was determined as disclosed by R. J. Tallarida et al., Life Sci., 45, 947 (1989). This procedure involved determination of the total amount in the mixture that is required to produce a specified level of effect, such as 50% (ED50mix), and the corresponding total amount that would be expected under simple additivity (ED50add). Where it was established that ED50mix <ED50add for a specific fixed-ratio,then that composition ratio is superadditive. Both the 1quantities ED50mix and ED50add were random variables; ED50mix was estimated from the dose-response curve for a specific fixed-ratio; ED50add was obtained by combining the ED50 estimates for the two drugs under additivity. ED50mix was then compared to ED50add via a t-test. […] The interaction between tramadol and codeine or […] were determined at precise dosage ratios of tramadol hydrochloride and codeine or oxycodone. Multiple (typically 4-6) coded doses of each selected combination were studied for analgesic effectiveness after 15 minutes using an experimental design which permitted the complete randomization of the separate dosage forms tested.
# In the Figures, the diagonal line joining the ED50 values of the two drugs given separately represents the simple additivity of a composition effects at different component ratio. The dotted adjacent lines to the diagonal line define the 95% confidence interval. ED50's falling under the curve (between the line and the origin) indicate superadditivity, i.e., unexpected enhancement of effects. The diagonal dashed lines radiating from the origin represent the dose ratios of tramadol hydrochloride to codeine phosphate (FIG. 1) or oxycodone sulfate (FIG. 2) used in mice receiving the combined drug dosages. The bars through the ED50 points for tramadol and codeine or oxycodone compositions represent the 95% confidence intervals of the ED50.
# [2] = in vivo; cited from earlier work
# [3] = drug alone, p.o., tail-flick, mice, 15 min
structure (smiles),measurement,setting,value
"COc1cccc(C2(O)CCCCC2CN(C)C)c1 (stereo not drawn) [tramadol only, (1RS, 2RS) trans-2-[(dimethylamino)-methyl]-1-(3-methoxyphenyl)cyclohexanol]","ED50 at 15 min (95% Cl's), Tramadol","[1]; Table I (tramadol:codeine), p.o., 15 min",76.8 mg/kg
same,"ED50 at 15 min (95% Cl's), Tramadol","[1]; Table II (tramadol:oxycodone), p.o., 15 min",76.8 mg/kg
same,"ED50 (95% confidence interval), drug alone",[1]; [3],76.8 (59.2-99.7) mg/kg
COc1ccc2c3c1O[C@H]1[C@@H](O)C=C[C@H]4[C@@H](C2)N(C)CC[C@@]341 [Codeine only],side effects,[2],"respiratory depression, constipation, tolerance and abuse liability"
same,ED50,[1]; [3],71.3 mg/kg
same,Analgesia,"[1]; codeine 10 mg/kg p.o., 15 min",0/10
same,Analgesia,"[1]; codeine 20 mg/kg p.o., 15 min",1/10
same,Analgesia,"[1]; codeine 40 mg/kg p.o., 15 min",1/10
same,Analgesia,"[1]; codeine 80 mg/kg p.o., 15 min",5/10
same,Analgesia,"[1]; codeine 160 mg/kg p.o., 15 min",10/10
COc1ccc2c3c1O[C@H]1C(=O)CC[C@@]4(O)[C@@H](C2)N(C)CC[C@]314 [oxycodone only],side effects,[2],"respiratory depression, constipation, tolerance and abuse liability"
same,ED50,[1],4.2 mg/kg
same,Analgesia,"[1]; oxycodone 0.5 mg/kg p.o., 15 min",0/10
same,Analgesia,"[1]; oxycodone 1 mg/kg p.o., 15 min",2/20
same,Analgesia,"[1]; oxycodone 2 mg/kg p.o., 15 min",3/10
same,Analgesia,"[1]; oxycodone 3 mg/kg p.o., 15 min",2/10
same,Analgesia,"[1]; oxycodone 6 mg/kg p.o., 15 min",5/10
same,Analgesia,"[1]; oxycodone 10 mg/kg p.o., 15 min",9/10
same,Analgesia,"[1]; oxycodone 20 mg/kg p.o., 15 min",10/10
same,Analgesia,"[1]; oxycodone 30 mg/kg p.o., 15 min",10/10
COc1ccc2c3c1O[C@H]1C(=O)CC[C@H]4[C@@H](C2)N(C)CC[C@]314 [hydrocodone],side effects,[2],"respiratory depression, constipation, tolerance and abuse liability"
